According to US8722868B2, “Glycosyltransferase, novel glycosyltransferase gene, and novel sugar donor compound” (National University Corporation Tokyo University of …, priority 2009, dated 2014):

How the values were obtained:
[1] = target: T1, delphinium-derived glycosyltransferase (SEQ ID NO: 3), recombinant (Delphinium grandiflorum, UniProt E3W9M3); assay: Glycosyl transfer reaction with delphinium-derived glycosyltransferase gene expressed in Escherichia coli; assay type: biochemical, delphinium (Delphinium grandiflorum L.); conditions: recombinant enzyme from E. coli, cyanidin 3-O-β-glucoside as sugar receptor
T1 construct: made in house; host or cells: Escherichia coli JM109 (crude lysate supernatant)
T1 sequence (E3W9M3 29-505 limits assumed): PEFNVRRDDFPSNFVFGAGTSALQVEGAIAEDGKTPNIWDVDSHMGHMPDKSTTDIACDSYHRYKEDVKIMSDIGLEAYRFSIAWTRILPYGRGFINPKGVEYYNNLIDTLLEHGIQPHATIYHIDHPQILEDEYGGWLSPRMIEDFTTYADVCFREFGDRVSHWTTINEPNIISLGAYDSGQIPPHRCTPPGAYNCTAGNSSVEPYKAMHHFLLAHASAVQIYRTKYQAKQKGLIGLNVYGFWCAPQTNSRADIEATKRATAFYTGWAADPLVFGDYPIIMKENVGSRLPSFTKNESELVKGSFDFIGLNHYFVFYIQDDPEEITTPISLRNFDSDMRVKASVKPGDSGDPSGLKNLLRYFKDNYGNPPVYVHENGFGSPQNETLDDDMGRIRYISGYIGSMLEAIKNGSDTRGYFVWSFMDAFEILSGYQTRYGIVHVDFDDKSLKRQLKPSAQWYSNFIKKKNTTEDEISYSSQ
Description: PCR was performed using a sense primer (“ATGCCCGAATTTAATGTCAG” (SEQ ID NO: 19)) designed so as to add a methionine residue for the initiation of translation to a sequence from which 28 amino acid residues at the N-terminus predicted as corresponding to vacuolar transfer signals of DgVA7GT had been removed and an antisense primer (“CTG TGA AGA GTA CGA TAT C” (SEQ ID NO: 20)) designed so as to lack a stop codon. The PCR product was ligated to a pTrcHis2-TOPO vector (Invitrogen) using a pTrcHis2-TOPO TA expression Kit (Invitrogen), followed by transformation of the Escherichia coli JM109 strain. DNA was extracted from the transformed Escherichia coli and the DNA nucleotide sequence was analyzed in the above manner. Accordingly, the direction of cDNA introduction and the nonoccurrence of a PCR-induced nucleotide substitution were confirmed.
The transformed Escherichia coli was seeded on an LB medium containing […] ampicillin (5 ml), followed by shake culture at 30° C. for 4 hours. Then, IPTG was added thereto to result in 1 mM, followed by shake culture at 16° C. for 2 hours. The cultured Escherichia coli was harvested via centrifugation at 1,800×g. The medium was removed therefrom. A 0.1 M citric acid buffer (pH 5.6) (150 μl) was added thereto, followed by sufficient mixing. […]

[2] = target: T2, glycosyltransferase in crude enzyme extracted from petals of a delphinium (variety: "marine blue") (Delphinium grandiflorum, UniProt E3W9M3); assay: Detection of glycosyl transfer reaction with delphinium petal crude enzyme (HPLC); assay type: biochemical, delphinium (Delphinium grandiflorum L.); conditions: cyanidin 3-O-β-glucoside 200 μM, sugar donor 1 mM, pH 5.6, 30° C., 15 minutes
T2 construct: Glycosyltransferase activity was examined using a crude enzyme extracted from; from tissue
T2 sequence (E3W9M3 26-505): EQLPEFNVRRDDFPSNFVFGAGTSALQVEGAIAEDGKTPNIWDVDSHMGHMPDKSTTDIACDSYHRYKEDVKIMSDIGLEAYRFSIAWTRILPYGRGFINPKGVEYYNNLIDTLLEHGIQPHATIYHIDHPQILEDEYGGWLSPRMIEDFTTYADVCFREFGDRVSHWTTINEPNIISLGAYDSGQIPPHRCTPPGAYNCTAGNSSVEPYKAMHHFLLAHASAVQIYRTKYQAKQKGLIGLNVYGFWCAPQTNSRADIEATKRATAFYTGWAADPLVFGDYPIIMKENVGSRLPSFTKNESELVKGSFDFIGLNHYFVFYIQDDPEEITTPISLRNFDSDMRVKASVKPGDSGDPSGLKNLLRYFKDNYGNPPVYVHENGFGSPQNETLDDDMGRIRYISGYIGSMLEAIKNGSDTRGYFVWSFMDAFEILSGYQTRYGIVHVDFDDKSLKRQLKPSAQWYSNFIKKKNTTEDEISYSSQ
Description: Glycosyltransferase activity was examined using a crude enzyme extracted from pink petals of a carnation (variety: “Beam Cherry”) or petals of a delphinium (variety: “marine blue”) in the manner described in Example 1. Cyanidin 3-O-β-glucoside (final concentration: 200 μM) and 1-O-β-p-hydroxybenzoyl glucose (final concentration: 1 mM) were used as a receptor and a sugar donor, respectively. The pH was adjusted to 5.6 with a citric acid buffer, followed by a glycosyltransferase reaction at 30° C. for 15 minutes. The reaction was terminated with phosphoric acid (final concentration: 1%), followed by centrifugation for the removal of insoluble matter. Then, the supernatant was analyzed by HPLC. HPLC analysis was carried out using a 1.5% phosphoric acid aqueous solution and methanol as eluents and a Wakopak Handy ODS column (4.6×250 mm, Wako Pure Chemical Industries, Ltd.). Separation was carried out at a flow rate of 1 ml/min with a linear gradient of 20% to 55% methanol (20 minutes). A reaction product was confirmed using a photodiode array detector.

Row | Structure (SMILES) | Sugar donor function with recombinant delphinium-derived glycosyltransferase (reaction product) [1] | Recognition as sugar donor by delphinium glycosylation enzyme [2]
1 | COc1cc(C(=O)OC2OC(CO)C(O)C(O)C2O)ccc1O (stereo not drawn) | capable of transferring glucose to the 7 position of the anthocyanin skeleton using vanillyl glucose as a sugar donor | –
2 | O=C(OC1OC(CO)C(O)C(O)C1O)c1ccc(O)cc1 (stereo not drawn) [1-O-β-p-hydroxybenzoyl glucose] | cyanidin 3,7-diglucoside formed as a result of transfer of glucose to a hydroxyl group at the 7 position of cyanidin 3-glucoside | recognize 1-O-β-p-hydroxybenzoyl glucose as a sugar donor
